Measurements taken from patent US20120121679A1, “VIRICIDAL AND MICROBICIDAL COMPOSITIONS AND USES THEREOF” (University of Georgia Research Foundation, Inc., priority 2009, published 2012).
Like-named read-outs stand apart in the source and are kept apart here.

Experiments:
yeast species = assay: Effect of levulinic acids plus SDS at 21° C. on various yeast species
Murine norovirus (MNV-1) = assay: Inactivation of MNV-1 by levulinic acid plus SDS in solution, plaque assay; conditions: 21° C., 1 min
S. enteritidis = assay: Reduction of S. enteritidis in water treated with organic acids and SDS; format: cell-based, Salmonella enteritidis; conditions: within 30 minutes; listed as 1% by weight levulinic acid
Feline Calicivirus (FCV) = assay: Inactivation of FCV by levulinic acid plus SDS in solution, plaque assay; conditions: 21° C., 1 min
[1] = test system: spores of Bacillus anthracis Sterne (34F2); format: cell-based
[2] = Candida magnoliae, inoculum […] 10^8 CFU/ml
[3] = Debaryomyces hansenii, inoculum […] 10^7 CFU/ml
[4] = Geotrichum candidum, inoculum […] 10^7 CFU/ml
[5] = Saccharomyces cerevisiae, inoculum […] 10^7 CFU/ml
[6] = Zygosaccharomyces bailii, inoculum […] 10^7 CFU/ml

CCCCCCCCCCCCOS(=O)(=O)[O-].[Na+] [1.0% SDS]
Yeast counts at 2 min (yeast species; [2]): 3.3 log CFU/ml | Yeast counts at 5 min (yeast species; [2]): 3.2 log CFU/ml | Yeast counts at 20 min (yeast species; [2]): 2.7 log CFU/ml | Yeast counts at 30 min (yeast species; [2]): 3.0 log CFU/ml | Yeast counts at 60 min (yeast species; [2]): 3.1 log CFU/ml | Yeast counts at 2 min (yeast species; [3]): 4.1 log CFU/ml | Yeast counts at 5 min (yeast species; [3]): 4.5 log CFU/ml | Yeast counts at 20 min (yeast species; [3]): 4.5 log CFU/ml | Yeast counts at 30 min (yeast species; [3]): 4.5 log CFU/ml | Yeast counts at 60 min (yeast species; [3]): 4.4 log CFU/ml | Yeast counts at 2 min (yeast species; [4]): 3.3 log CFU/ml | Yeast counts at 5 min (yeast species; [4]): 3.5 log CFU/ml | Yeast counts at 20 min (yeast species; [4]): 3.5 log CFU/ml | Yeast counts at 30 min (yeast species; [4]): 3.4 log CFU/ml | Yeast counts at 60 min (yeast species; [4]): 3.3 log CFU/ml | Yeast counts at 2 min (yeast species; [5]): 2.6 log CFU/ml | Yeast counts at 5 min (yeast species; [5]): 2.3 log CFU/ml | Yeast counts at 20 min (yeast species; [5]): 2.7 log CFU/ml | Yeast counts at 30 min (yeast species; [5]): 2.3 log CFU/ml | Yeast counts at 60 min (yeast species; [5]): 2.4 log CFU/ml | Yeast counts at 2 min (yeast species; [6]): 4.6 log CFU/ml | Yeast counts at 5 min (yeast species; [6]): 4.6 log CFU/ml | Yeast counts at 20 min (yeast species; [6]): 4.5 log CFU/ml | Yeast counts at 30 min (yeast species; [6]): 4.5 log CFU/ml | Yeast counts at 60 min (yeast species; [6]): 4.4 log CFU/ml

CC(=O)CCC(=O)O [1.0% levulinic acid, levulinic acid]
Log Reduction PFU/ml (standard deviation), MNV-1 (Murine norovirus (MNV-1); listed as 1% Levulinic acid): −0.04 (±0.23) log PFU/ml | Salmonella reduction in water (S. enteritidis): ≤ 1 log CFU/ml | Log Reduction PFU/ml (standard deviation), FCV (Feline Calicivirus (FCV); listed as 1% Levulinic acid): 0.32 (±0.19) log PFU/ml

CCCCCCCCCCCCOS(=O)(=O)[O-].[Na+] [2% SDS, sodium dodecyl sulfate]
Log Reduction PFU/ml (standard deviation), MNV-1 (Murine norovirus (MNV-1); sulfate): −0.23 (±0.59) log PFU/ml | Log Reduction PFU/ml (standard deviation), FCV (Feline Calicivirus (FCV); sulfate): −0.05 (±0.22) log PFU/ml | Recovery levels over time ([1]; Experiment A3): did not decrease | CFU/ml % recovery (as compared to control flask F) ([1]; Experiment A3, 0 min): 119% | CFU/ml % recovery (as compared to control flask F) ([1]; Experiment A3, 10 min): 65% | CFU/ml % recovery (as compared to control flask F) ([1]; Experiment A3, 45 min): 94% | CFU/ml % recovery (as compared to control flask F) ([1]; Experiment A3, 90 min): 144% | CFU/ml % recovery (as compared to control flask F) ([1]; Experiment A3, 180 min): 95% | CFU/ml % recovery (as compared to control flask F) ([1]; Experiment A4 absent heat, RT, 0 min): 85% | CFU/ml % recovery (as compared to control flask F) ([1]; Experiment A4 absent heat, RT, 1 h): 90% | CFU/ml % recovery (as compared to control flask F) ([1]; Experiment A4 absent heat, RT, 2 h): 87% | CFU/ml % recovery (as compared to control flask F) ([1]; Experiment A4 absent heat, RT, 3 h): 98% | CFU/ml % recovery (as compared to control flask F) ([1]; Experiment A4 absent heat, RT, 4 h): 79% | CFU/ml % recovery (as compared to control flask F) ([1]; Experiment A4 with heat, 65° C., 0 min): 48% | CFU/ml % recovery (as compared to control flask F) ([1]; Experiment A4 with heat, 65° C., 1 h): 53% | CFU/ml % recovery (as compared to control flask F) ([1]; Experiment A4 with heat, 65° C., 2 h): 74% | CFU/ml % recovery (as compared to control flask F) ([1]; Experiment A4 with heat, 65° C., 3 h): 68% | CFU/ml % recovery (as compared to control flask F) ([1]; Experiment A4 with heat, 65° C., 4 h): 114% | CFU/ml % recovery (as compared to control flask F) ([1]; Experiment A5 absent heat, RT, 0 min): 122% | CFU/ml % recovery (as compared to control flask F) ([1]; Experiment A5 absent heat, RT, 1 h): 117% | CFU/ml % recovery (as compared to control flask F) ([1]; Experiment A5 absent heat, RT, 2 h): 103% | CFU/ml % recovery (as compared to control flask F) ([1]; Experiment A5 absent heat, RT, 3 h): 113% | CFU/ml % recovery (as compared to control flask F) ([1]; Experiment A5 absent heat, RT, 4 h): 103% | CFU/ml % recovery (as compared to control flask F) ([1]; Experiment A5 with heat, 65° C., 0 min): 71% | CFU/ml % recovery (as compared to control flask F) ([1]; Experiment A5 with heat, 65° C., 1 h): 69% | CFU/ml % recovery (as compared to control flask F) ([1]; Experiment A5 with heat, 65° C., 2 h): 53% | CFU/ml % recovery (as compared to control flask F) ([1]; Experiment A5 with heat, 65° C., 3 h): 71% | CFU/ml % recovery (as compared to control flask F) ([1]; Experiment A5 with heat, 65° C., 4 h): 54% | effectiveness compared with water control F ([1]; Experiments A4, A5): not more effective than the water control F
